Measured values reported in patent publication US20170190726A9, “PRODRUG FOR RELEASE OF CISPLATIN AND CYCLOOXYGENASE INHIBITOR” (priority 2013, published 2017).

Key:
[1] = system: COX-2 expression in PC3 cells; experiment: Immunofluorescence analysis of COX-2 expression in PC3 cells; assay type: cell-based, Human; conditions: TNF-α 20 ng/mL 2 h, then 1 μM test article 2 h
Description: Human TNF-α (20 ng/mL) was then added to the cells and incubated for 2 h. […] The cells were then fixed with a 4% paraformaldehyde solution for 30 min at room temperature. […] The coverslips were washed 3 times with H2O and 3 times with PBS. […] After 5 washes with blocking buffer, the cells were mounted on microscope slides with mounting media (20 mM Tris of pH 8.0, 0.5% N-propyl gallate, and 70% glycerol). Images were collected with 500 ms exposure using DAPI and FITC filters. Relative fluorescence units (RFUs) were also analyzed by a plate reader at an excitation wavelength of 488 nm and an emission of 519 nm.

PC3 cells = experiment: Apoptosis detection by annexin V/PI assay; assay type: cell-based, Human; conditions: 25 μM, 6 h
From the text: High expression of COX-2 is found in various cancers, however, for PCa cell lines as well as tissue, contradictory results exist. We therefore tested anti-proliferative properties of Platin-A on androgen-responsive LNCaP and androgenunresponsive PC3 and DU145 PCa cells that differ in their malignant potentials. […] However, in LNCaP cells, Platin-A activity was better than an equimolar mixture of cisplatin and aspirin. In general, Pt(IV) compounds are less cytotoxic compared to their active Pt(II) form. […] To evaluate whether Platin-A-dependent inhibition of cancer cell proliferation is associated with apoptosis, Alexa Fluor® 488 annexin V/propidium iodide (PI) staining assay was carried out in PC3 cells and the data were analyzed by fluorescence assisted cell sorting. […]
PC3 cells were seeded at a density of 1×10^6 cells/mL on each well of a six well plate and allowed to grow overnight. […] Cell density was determined and cells were resuspended in 1× annexinVbinding buffer to 1×10^6 cells/mL preparing a sufficient volume to have 100 μL per assay. […] After the incubation period, 400 μL of 1× annexin-binding buffer was added to each sample, samples were gently mixed keeping the samples on ice, and the samples were analyzed on the flow cytometer immediately.

Cyclic voltammetry = assay type: physicochemical
Description: FIG. 6: Cyclic voltammograms of ‘Platin-A’ in 1:4 dimethyformamide (DMF)-phosphate buffer-0.1 M KCl at two different pH values.
Electrochemical measurements were made at 25° C. on an analytical system model CHI 920c potentiostat from CH Instruments, Inc. (Austin, Tex.). A conventional three-electrode set-up comprising a glassy carbon working electrode, platinum wire auxiliary electrode and an Ag/AgCl (3M KCl) reference electrode was used for electrochemical measurements. The electrochemical data were uncorrected for junction potentials. KCl was used as a supporting electrolyte. Platin-A (2 mM) solutions were prepared in 20% DMF-phosphate buffered saline (PBS) of pH 6.4 and 7.4 with […] and voltammograms were recorded at different scan rates (FIG. 6).

For CC(=O)Oc1ccccc1C(=O)[O][Pt]([NH2])([NH2])([OH])([Cl])[Cl] [Platin-A], which “COX-2 expression in TNF-α stimulated PC3 cells” value [1] is on record?
Its value is “levels were reduced”.

What about the “apoptosis induction (annexin V/PI)” value (PC3 cells) of the same compound?
The value was “High level of apoptosis was induced”.

And the “positive shift of reduction potential” value (Cyclic voltammetry; pH 6.4 compared with pH 7.4)?
The value was 42 mV.

And the reduction potential (Cyclic voltammetry; pH 7.4, vs. normal hydrogen electrode (NHE))?
Its reduction potential is −536 mV.
